# From patent US6737383B1, “Herbicidal oxadiazolidines” (priority 1999, dated 2004)
# How the values were obtained:
# cotton = experiment: Test C postemergence cotton; assay type: in vivo, Gossypium hirsutum; conditions: 0 to 100 scale, 0 no effect, 100 complete control
# Protocol: Compounds evaluated in this test were formulated in a non-phytotoxic solvent mixture which included a surfactant and applied to plants that were grown for various periods of time before treatment (postemergence application). A mixture of sandy loam soil and greenhouse potting mix in a 60:40 ratio was used for the postemergence test.
# Plantings of these crops and weed species were adjusted to produce plants of appropriate size for the postemergence test. All plant species were grown using normal greenhouse practices. Crop and weed species include arrowleaf sida (Sida rhombifolia), barnyardgrass (Echinochloa crus-galli), cocklebur (Xanthium strumarium), common ragweed (Ambrosia elatior), corn (Zea mays), cotton (Gossypium hirsutum), eastern black nightshade (Solanum ptycanthum), fall panicum (Panicum dichotomiflorum), field bindweed (Convolvulus arvensis), giant foxtail (Setaria faberii), hairy beggarticks (Bidens pilosa), ivyleaf morningglory (Ipomoea hederacea), johnsongrass (Sorghum halepense), ladysthumb smartweed (Polygonum persicaria), lambsquarters (Chenopodium album), large crabgrass (Digitaria sanguinalis), purple nutsedge (Cyperus rotundus), redroot pigweed (Amaranthus retroflexus), soybean (Glycine max), surinam grass (Brachiaria decumbens), velvetleaf (Abutilon theophrasti) and wild poinsettia (Euphorbia heterophylla).
# Treated plants and untreated controls were maintained in a greenhouse for approximately 14, to 21 days, after which all treated plants were compared to untreated controls and visually evaluated. Plant response ratings, summarized in Table C, were based upon a 0 to 100 scale where 0 was no effect and 100 was complete control. A dash response (−) means no test result.
# Johnson grass = experiment: Test D Johnson grass; assay type: in vivo, Sorghum halepense; conditions: Preemergence, 0 to 100 scale
# Method in brief: (§1)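 Each weed species is planted in its own pot or compartment; preemergence doses go on the sandy loam surface within a day. The formulation is a surfactant-containing, non-phytotoxic solvent blend. Ratings come from visual comparison with untreated controls 14 to 21 days later, where 100 means complete control.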
# common pursiane = experiment: Test D common purslane; assay type: in vivo, Portulaca oleracea
# Method in brief: as §1
# surinam grass = experiment: Test D surinam grass; assay type: in vivo, Brachiaria decumbens; conditions: Preemergence, 0 to 100 scale
# From the text: (§2) Seeds, tubers, or plant parts of Alexandergrass (Brachiaria plantaginea), bermuda-grass (Cynodon dactylon), common pursiane (Portulaca oleracea), common ragweed (Ambrosia elatior), common groundsel (Senecio vulgaris), dallisgrass (Paspalum dilatatum), goosegrass (Eleusine indica), guineagrass (Panicum maximum), itchgrass (Rottboellia exaltata), Johnson grass (Sorghum halepense), large crabgrass (Digitaria sanguinalis), pitted morningglory (Ipomoea lacunosa), purple nutsedge (Cyperus rotundus), sandbur (Cenchrus echinatus), sourgrass (Trichachne insularis), Spanishneedles (Bidens bipinnata), surinam grass (Brachiaria decumbens) and tall mallow (Malva sylvestris) were planted into greenhouse pots of flats containing greenhouse planting medium. Plant species were grown in separate pots or individual compartments. Preemergence applications were made within one day of planting the seed or plant part.
# (§3) Test chemicals were formulated in a non-phytotoxic solvent mixture which included a surfactant and applied preemergence to the surface of the pot containing seeds in a sandy loam soil. Untreated control pots and treated pots were placed in the greenhouse for growth and visually evaluated for injury 14 to 21 days after herbicide application. Plant response ratings, summarized in Table C, are based on a 0 to 100 scale where 0 is no injury and 100 is complete control. A dash (−) response means no test result.
# bermuda-grass = experiment: Test D bermudagrass; assay type: in vivo, Cynodon dactylon; conditions: Preemergence, 0 to 100 scale
# Method in brief: as §1
# Spanishneedles = experiment: Test D Spanishneedles; assay type: in vivo, Bidens bipinnata; conditions: Preemergence, 0 to 100 scale
# From the text: as §2, §3
# itchgrass = experiment: Test D itchgrass; assay type: in vivo, Rottboellia exaltata; conditions: Preemergence, 0 to 100 scale
# From the text: as §2, §3
# common ragweed = experiment: Test D common ragweed; assay type: in vivo, Ambrosia elatior; conditions: Preemergence, 0 to 100 scale
# From the text: as §2, §3
# Alexandergrass = experiment: Test D Alexandergrass; assay type: in vivo, Brachiaria plantaginea; conditions: Preemergence, 0 to 100 scale
# Method in brief: as §1
# tall mallow = experiment: Test D tall mallow; assay type: in vivo, Malva sylvestris; conditions: Preemergence, 0 to 100 scale
# Method in brief: as §1
# Green foxtail = experiment: Test D green foxtail; assay type: in vivo
# From the text: as §2, §3
# sandbur = experiment: Test D sandbur; assay type: in vivo, Cenchrus echinatus; conditions: Preemergence, 0 to 100 scale
# From the text: as §2, §3
# pitted morningglory = experiment: Test D pitted morningglory; assay type: in vivo, Ipomoea lacunosa; conditions: Preemergence, 0 to 100 scale
# Method in brief: as §1
# goosegrass = experiment: Test D goosegrass; assay type: in vivo, Eleusine indica; conditions: Preemergence, 0 to 100 scale
# Method in brief: as §1
# dallisgrass = experiment: Test D dallisgrass; assay type: in vivo, Paspalum dilatatum; conditions: Preemergence, 0 to 100 scale
# Method in brief: as §1
# large crabgrass = experiment: Test D large crabgrass; assay type: in vivo, Digitaria sanguinalis; conditions: Preemergence, 0 to 100 scale
# Method in brief: as §1
# guineagrass = experiment: Test D guineagrass; assay type: in vivo, Panicum maximum; conditions: Preemergence, 0 to 100 scale
# From the text: as §2, §3
# [1] = Rate 16 g/ha, 0 no injury, 100 complete control
# [2] = Rate 32 g/ha, 0 no injury, 100 complete control
# [3] = Rate 64 g/ha, 0 no injury, 100 complete control
# [4] = Rate 125 g/ha, 0 no injury, 100 complete control
# [5] = Rate 16 g/ha; Preemergence; 0 to 100 scale, 0 no injury, 100 complete control
# [6] = Rate 32 g/ha; Preemergence; 0 to 100 scale, 0 no injury, 100 complete control
# [7] = Rate 64 g/ha, Preemergence; 0 to 100 scale, 0 no injury, 100 complete control
# [8] = Rate 125 g/ha, Preemergence; 0 to 100 scale, 0 no injury, 100 complete control
# [9] = Rate 250 g/ha; Preemergence; 0 to 100 scale
# [10] = Rate 500 g/ha, Preemergence; 0 to 100 scale
smiles,measurement,setting,value
CC(C)N(C(=O)n1oc(=O)n(C(C)C)c1=O)c1ccc(F)cc1F [Compound 109],Plant response rating Cotton,cotton; Rate 140 g/ha,10
same,Plant response rating Cotton,cotton; Rate 280 g/ha,50
same,Plant response rating Cotton,cotton; Rate 560 g/ha,70
same,Plant response rating Cotton,cotton; Rate 1120 g/ha,70
same,Plant response rating Johnsongrass,Johnson grass; [1],0
same,Plant response rating Johnsongrass,Johnson grass; [2],0
same,Plant response rating Johnsongrass,Johnson grass; [3],75
same,Plant response rating Johnsongrass,Johnson grass; [4],98
same,Plant response rating Johnsongrass,Johnson grass; Rate 250 g/ha,100
same,Plant response rating Johnsongrass,Johnson grass; Rate 500 g/ha,100
same,"Plant response rating, C. purslane",common pursiane; [5],0
same,"Plant response rating, C. purslane",common pursiane; [6],0
same,"Plant response rating, C. purslane",common pursiane; [7],0
same,"Plant response rating, C. purslane",common pursiane; [8],0
same,"Plant response rating, C. purslane",common pursiane; [9],0
same,"Plant response rating, C. purslane",common pursiane; [10],55
same,"Plant response rating, C. purslane",common pursiane; Rate 500 g/ha; Preemergence; 0 to 100 scale,0
same,Plant response rating Surinam grass,surinam grass; [1],0
same,Plant response rating Surinam grass,surinam grass; [2],30
same,Surinam grass plant response rating,surinam grass; [3],85
same,Surinam grass plant response rating,surinam grass; [4],98
same,Plant response rating Surinam grass,surinam grass; Rate 250 g/ha,100
same,Plant response rating Surinam grass,surinam grass; Rate 500 g/ha,100
same,"Plant response rating, Bermudagrass",bermuda-grass; [1],98
same,"Plant response rating, Bermudagrass",bermuda-grass; [2],100
same,"Plant response rating, Bermudagrass",bermuda-grass; [3],100
same,"Plant response rating, Bermudagrass",bermuda-grass; [4],100
same,"Plant response rating, Bermudagrass",bermuda-grass; Rate 250 g/ha,100
same,"Plant response rating, Bermudagrass",bermuda-grass; Rate 500 g/ha,100
same,"Plant response rating, Spanishneedles",Spanishneedles; [1],0
same,"Plant response rating, Spanishneedles",Spanishneedles; [2],10
same,Spanishneedles plant response rating,Spanishneedles; [3],10
same,Spanishneedles plant response rating,Spanishneedles; [4],10
same,"Plant response rating, Spanishneedles",Spanishneedles; Rate 500 g/ha,30
same,"Plant response rating, Itchgrass",itchgrass; [1],0
same,"Plant response rating, Itchgrass",itchgrass; [2],65
same,"Plant response rating, Itchgrass",itchgrass; [3],75
same,"Plant response rating, Itchgrass",itchgrass; [4],75
same,"Plant response rating, Itchgrass",itchgrass; Rate 250 g/ha,100
same,"Plant response rating, Itchgrass",itchgrass; Rate 500 g/ha,100
same,"Plant response rating, C. ragweed",common ragweed; [1],0
same,"Plant response rating, C. ragweed",common ragweed; [2],0
same,"Plant response rating, C. ragweed",common ragweed; [3],10
same,"Plant response rating, C. ragweed",common ragweed; [4],10
same,"Plant response rating, C. ragweed",common ragweed; Rate 250 g/ha,10
same,"Plant response rating, C. ragweed",common ragweed; Rate 500 g/ha,55
same,"Plant response rating, Alexandergrass",Alexandergrass; [1],40
same,"Plant response rating, Alexandergrass",Alexandergrass; [2],90
same,"Plant response rating, Alexandergrass",Alexandergrass; [3],98
same,"Plant response rating, Alexandergrass",Alexandergrass; [4],100
same,"Plant response rating, Alexandergrass",Alexandergrass; Rate 250 g/ha,100
same,"Plant response rating, Alexandergrass",Alexandergrass; Rate 500 g/ha,100
same,"Plant response rating, Tall Mallow",tall mallow; [1],0
same,"Plant response rating, Tall Mallow",tall mallow; [2],20
same,Tall Mallow plant response rating,tall mallow; [3],60
same,Tall Mallow plant response rating,tall mallow; [4],85
same,"Plant response rating, Tall Mallow",tall mallow; Rate 250 g/ha,98
same,"Plant response rating, Tall Mallow",tall mallow; Rate 500 g/ha,100
same,"Plant response rating, Green foxtail","Green foxtail; Preemergence; Rate 16 g/ha; 0 to 100 scale, 0 no injury, 100 complete control",98
same,"Plant response rating, Green foxtail","Green foxtail; Preemergence; Rate 32 g/ha; 0 to 100 scale, 0 no injury, 100 complete control",100
same,"Plant response rating, Green foxtail",Green foxtail; [5],98
same,"Plant response rating, Green foxtail",Green foxtail; [6],0
same,Green foxtail plant response rating,Green foxtail; [7],100
same,"Plant response rating, Green foxtail",Green foxtail; [7],100
same,Green foxtail plant response rating,Green foxtail; [8],100
same,"Plant response rating, Green foxtail",Green foxtail; [8],100
same,"Plant response rating, Green foxtail",Green foxtail; [9],100
same,"Plant response rating, Green foxtail",Green foxtail; [10],100
same,"Plant response rating, Sandbur",sandbur; [1],0
same,"Plant response rating, Sandbur",sandbur; [2],0
same,Sandbur plant response rating,sandbur; [3],98
same,Sandbur plant response rating,sandbur; [4],100
same,"Plant response rating, Sandbur",sandbur; Rate 250 g/ha,100
same,"Plant response rating, Sandbur",sandbur; Rate 500 g/ha,100
same,"Plant response rating, P. morninglory",pitted morningglory; [1],0
same,"Plant response rating, P. morninglory",pitted morningglory; [2],0
same,"Plant response rating, P. morninglory",pitted morningglory; [3],0
same,"Plant response rating, P. morninglory",pitted morningglory; [4],65
same,"Plant response rating, P. morninglory",pitted morningglory; Rate 250 g/ha,85
same,"Plant response rating, P. morninglory",pitted morningglory; Rate 500 g/ha,100
same,"Plant response rating, Goosegrass",goosegrass; [1],85
same,"Plant response rating, Goosegrass",goosegrass; [2],98
same,"Plant response rating, Goosegrass",goosegrass; [3],100
same,"Plant response rating, Goosegrass",goosegrass; [4],100
same,"Plant response rating, Goosegrass",goosegrass; Rate 250 g/ha,100
same,"Plant response rating, Goosegrass",goosegrass; Rate 500 g/ha,100
same,"Plant response rating, Dallisgrass",dallisgrass; [1],40
same,"Plant response rating, Dallisgrass",dallisgrass; [2],98
same,"Plant response rating, Dallisgrass",dallisgrass; [3],100
same,"Plant response rating, Dallisgrass",dallisgrass; [4],100
same,"Plant response rating, Dallisgrass",dallisgrass; Rate 250 g/ha,100
same,"Plant response rating, Dallisgrass",dallisgrass; Rate 500 g/ha,100
same,Plant response rating Large crabgrass,large crabgrass; [1],85
same,Plant response rating Large crabgrass,large crabgrass; [2],100
same,Plant response rating Large crabgrass,large crabgrass; [3],100
same,Plant response rating Large crabgrass,large crabgrass; [4],100
same,Plant response rating Large crabgrass,large crabgrass; Rate 250 g/ha,100
same,Plant response rating Large crabgrass,large crabgrass; Rate 500 g/ha,100
same,"Plant response rating, Guineagrass",guineagrass; [1],90
same,"Plant response rating, Guineagrass",guineagrass; [2],100
same,"Plant response rating, Guineagrass",guineagrass; [3],100
same,"Plant response rating, Guineagrass",guineagrass; [4],100
same,"Plant response rating, Guineagrass",guineagrass; Rate 250 g/ha,100
same,"Plant response rating, Guineagrass",guineagrass; Rate 500 g/ha,100
